Assay results as given in patent US7323490B2, “Pyrrole compounds and uses thereof” (Ambit Biosciences Corporation, priority 2003, dated 2008).

Assays:
CLB2 = target: T1, CLB2 (Homo sapiens, UniProt P22676); assay: T7 phage display competition binding assay (immobilized atorvastatin), CLB2; settings: soluble competitor vs atorvastatin-coated affinity matrix; T7 phage displaying CLB2
T1 construct: made in house; host or cells: T7 phage amplified in E. coli
T1 sequence (P22676 1-271): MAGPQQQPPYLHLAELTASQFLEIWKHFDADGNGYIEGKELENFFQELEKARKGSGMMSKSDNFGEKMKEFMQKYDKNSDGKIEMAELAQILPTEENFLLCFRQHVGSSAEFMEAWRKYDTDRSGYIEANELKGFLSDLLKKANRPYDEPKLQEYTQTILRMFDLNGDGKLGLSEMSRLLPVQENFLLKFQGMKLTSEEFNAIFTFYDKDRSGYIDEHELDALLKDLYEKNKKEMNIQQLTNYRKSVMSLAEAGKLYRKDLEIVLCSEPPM
Source text: (§1) The T7 phage displaying human PDE6D and CLB2 were obtained following the procedure of WO 01/18234, published Mar. 15, 2001, and U.S. patent applications Ser. No. 10/115,442, “Phage Display Affinity Filter and Forward Screen,” filed Apr. 2, 2002 and Ser. No. 10/214,654, “Uncoupling DNA Insert Propagation and Protein Display,” filed Aug. 7, 2002. […] The phage eluate was then amplified by growth in E. coli and the affinity enrichment procedure was repeated.
(§2) The dissociation constants, Kd's, for the interaction between the pyrrole compounds and the novel targets were obtained following the procedure of the co-pending patent applications U.S. Ser. Nos. 10/115,442, “Phage Display Affinity Filter and Forward Screen,” filed Apr. 2, 2002 and 60/480,587, “Protein Family Profiling Tool and Methods,” filed Jun. 20, 2003.

PDE6D [1] = target: T2, PDE6D (Homo sapiens, UniProt O43924); assay: T7 phage display competition binding assay (immobilized atorvastatin), PDE6D; design: made in house; host or cells: T7 phage amplified in E. coli; settings: soluble competitor vs atorvastatin-coated affinity matrix; T7 phage displaying human PDE6D
Source text: as §1, §2

PDE6D [2] = target: T2, PDE6D; assay: phage-based competition binding screen at 2 μM; design: made in house; host or cells: phage; settings: 2 μM competitor, duplicate
Protocol: Forty-four molecules were screened for PDE6D binding activity in a standard phage-based competition binding assay, as described in co-pending U.S. patent applications Ser. No. 10/115,442, filed 2 Apr. 2002, and Ser. No. 10/406,797 filed on 2 Apr. 2003 (or PCT International Application PCT/US03/10247 filed 2 Apr. 2003). All compounds were screened in duplicate (duplicate sets of bars) at a concentration of 2 μM.

HMG-CoA reductase = target: T3, HMG-CoA reductase (Homo sapiens, UniProt P04035); assay: enzymatic activity-based HMG-CoA reductase assay; assay type: biochemical; settings: concentrations up to 4 μM
T3 sequence (P04035 1-888): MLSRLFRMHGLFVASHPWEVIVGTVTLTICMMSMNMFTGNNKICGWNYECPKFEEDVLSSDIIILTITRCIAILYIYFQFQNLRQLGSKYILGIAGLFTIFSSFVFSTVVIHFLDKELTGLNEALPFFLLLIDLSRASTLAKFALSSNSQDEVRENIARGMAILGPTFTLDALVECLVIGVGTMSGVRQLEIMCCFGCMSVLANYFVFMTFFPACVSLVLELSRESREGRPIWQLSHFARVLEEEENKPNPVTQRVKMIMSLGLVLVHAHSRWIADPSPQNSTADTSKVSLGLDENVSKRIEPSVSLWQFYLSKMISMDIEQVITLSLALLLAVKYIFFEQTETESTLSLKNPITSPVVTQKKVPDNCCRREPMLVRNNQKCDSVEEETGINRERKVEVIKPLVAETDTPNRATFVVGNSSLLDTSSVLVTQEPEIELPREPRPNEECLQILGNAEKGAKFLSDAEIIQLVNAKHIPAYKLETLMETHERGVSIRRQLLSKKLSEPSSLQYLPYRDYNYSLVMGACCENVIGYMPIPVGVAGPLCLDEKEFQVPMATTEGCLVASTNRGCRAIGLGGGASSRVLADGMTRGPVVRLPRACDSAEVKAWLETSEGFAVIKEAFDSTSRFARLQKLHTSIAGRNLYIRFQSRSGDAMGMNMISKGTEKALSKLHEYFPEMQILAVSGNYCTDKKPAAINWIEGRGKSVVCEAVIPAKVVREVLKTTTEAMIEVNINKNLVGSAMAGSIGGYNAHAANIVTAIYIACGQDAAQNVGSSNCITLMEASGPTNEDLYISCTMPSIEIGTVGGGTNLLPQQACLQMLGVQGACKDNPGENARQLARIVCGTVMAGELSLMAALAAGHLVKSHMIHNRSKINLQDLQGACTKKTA
Protocol: In addition, compounds 781430, 781066, 780780, 780754, 779974, 781456, 782236, 782756, 783250 and 780520 were tested in enzymatic activity-based HMG-CoA reductase assays. […] Blank cells indicate there was no detectable interaction while the “nd” designation indicates the Kd was not determined.

Row | Structure (SMILES) | Kd (CLB2) [nM] | Kd (PDE6D [1]) [nM] | fraction of PDE6D-displaying phage bound to immobilized atorvastatin (screen outcome) (PDE6D [2]) | inhibition of the activity of HMG-CoA reductase (HMG-CoA reductase)
1 | CC(C)c1c(C(=O)Nc2ccccc2)c(-c2ccccc2)c(-c2ccc(F)cc2)n1CCS(=O)O [Compound 783666] | 1850 |  |  | 
2 | CC(C)c1c(C(=O)Nc2ccccc2)c(-c2ccccc2)c(-c2ccc(F)cc2)n1[C@H](C)C(=O)OC(C)(C)C [Compound 780650] | 2100 |  |  | 
3 | CCOC(=O)CCn1c(-c2ccc(F)cc2)c(-c2ccccc2)c(C(=O)Nc2ccccc2)c1C(C)C [Compound 780026] |  | 6550 |  | 
4 | CC(C)c1c(C(=O)Nc2ccccc2)c(-c2ccccc2)c(-c2ccc(F)cc2)n1CCCCCCC(=O)O [Compound 780728] | 1650 | 350 |  | 
5 | CC(C)c1c(C(=O)Nc2ccccc2)c(-c2ccccc2)c(-c2ccc(F)cc2)n1CC[C@@H]1C[C@H](CC(=O)O)OC(C)(C)O1 [Compound 782964] | 9000 | 685 |  | 
6 | CC(C)c1c(C(=O)Nc2ccccc2)c(-c2ccccc2)c(-c2ccc(F)cc2)n1CCO [Compound 780078] | 2340 | 488 |  | 
7 | CC(C)c1c(C(=O)Nc2ccccc2)c(-c2ccccc2)c(-c2ccc(F)cc2)n1CCOCCO [Compound 780598] |  | 300 |  | 
8 | CC(C)c1c(C(=O)Nc2ccccc2)c(-c2ccccc2)c(-c2ccc(F)cc2)n1CC(=O)OC(C)(C)C [Compound 780546] |  | 880 |  | 
9 | CC(C)c1c(C(=O)Nc2ccccc2)c(-c2ccccc2)c(-c2ccc(F)cc2)n1Cc1ccccc1 [Compound 780000] |  | 598 |  | 
10 | CC(C)c1c(C(=O)Nc2ccccc2)c(-c2ccccc2)c(-c2ccc(F)cc2)n1CCN1CCOCC1 [Compound 780052] | 6000 | 387 |  | 
11 | CCCCCn1c(-c2ccc(F)cc2)c(-c2ccccc2)c(C(=O)Nc2ccccc2)c1C(C)C [Compound 782366] |  | 805 |  | 
12 | COc1ccc(-c2[nH]c(C(C)C)c(C(=O)Nc3ccccc3)c2-c2ccccc2)cc1 [Compound 780988] | 6000 | 430 |  | 
13 | CC(C)c1c(C(=O)Nc2ccccc2)c(-c2ccccc2)c(-c2ccc(F)cc2)n1CC(O)CC(=O)O (centres unmarked) [Compound 783770] | 335 | 1100 |  | 

More lines, in order of falling Kd (PDE6D [1]), values ahead:

Row | Kd (CLB2) [nM] | Kd (PDE6D [1]) [nM] | fraction of PDE6D-displaying phage bound to immobilized atorvastatin (screen outcome) (PDE6D [2]) | inhibition of the activity of HMG-CoA reductase (HMG-CoA reductase) | Structure (SMILES)
14 | 1000 | 280 |  |  | COCC(C(O)c1ccccc1)n1c(-c2ccc(F)cc2)c(-c2ccccc2)c(C(=O)Nc2ccccc2)c1C(C)C (centres unmarked) [Compound 780910]
15 | 3000 | 141 |  |  | CCC(C)C(CO)n1c(-c2ccc(F)cc2)c(-c2ccccc2)c(C(=O)Nc2ccccc2)c1C(C)C (centres unmarked) [Compound 780936]
16 | 2000 | 114 |  |  | CC(C)c1c(C(=O)Nc2ccccc2)c(-c2ccccc2)c(-c2ccc(F)cc2)n1CCCCCCO [Compound 780702]
17 | 6070 | 114 | candidate lead compounds |  | CC(C)c1c(C(=O)Nc2ccccc2)c(-c2ccccc2)c(-c2ccc(F)cc2)n1C [Compound 780104]
18 | 1890 | 61 | candidate lead compounds |  | CC(C)c1c(C(=O)Nc2ccccc2)c(-c2ccccc2)c(-c2ccc(F)cc2)n1CCCCCO [Compound 780676]
19 | 1640 | 60 | candidate lead compounds |  | CC(C)c1[nH]c(-c2ccccc2)c(-c2ccccc2)c1C(=O)Nc1ccccc1 [Compound 780858]
20 | 1830 | 58 |  | none of the tested compounds inhibited | CC(=O)NCCn1c(-c2ccc(F)cc2)c(-c2ccccc2)c(C(=O)Nc2ccccc2)c1C(C)C [Compound 780754]
21 | 1850 | 44 | candidate lead compounds | none of the tested compounds inhibited | CC(C)c1c(C(=O)Nc2ccccc2)c(-c2ccccc2)c(-c2ccc(F)cc2)n1CCCN1CCCC1=O [Compound 780520]
